According to article PMC10145360, “Antiplatelet Aggregation Properties of Cirsilineol: A Novel Inhibitor of Blood Coagulation Factor Xa” (Pharmaceuticals, 2023):
Values joined by “and” are separate entries in the source; they are usually repeats but may differ in a detail not shown here. Identical values can stand only once.

Key:
human platelets = test: Intracellular Ca2+ mobilization (Fura-2); assay type: cell-based; conditions: ADP 10 μM or U46619 6 μM; extracellular Ca2+ 1 mM
Protocol: Figure 6 Effects of CSL on activation of protein kinase CPKC activation and mobilization of intracellular calcium. (A) Rinsed platelets were incubated with DMSO or CSL (10 or 20 μM) for 10 min at 37 °C, and stimulation of ADP (10 μM, left) or U46619 (6 μM, right) was given for 1 min. The phosphorylation level of MARCKS in the platelets was determined with western blotting. Representative images from each group are shown (n = 3). Densitometric intensities of each signaling pathway component normalized to β-actin or total protein. (B,C) Human platelets preloaded with Fura-2 were incubated with DMSO (D) or CSL with extracellular Ca^2+ (1 mM) for 10 min at 37 °C, and ADP ((B) 10 μM) or U46619 ((C) 6 μM) stimulation was given to induce an increase in [Ca^2+]i. Data are shown as mean values ± SD of five independent experiments. * p < 0.05 vs. ADP (A,B) or U46619 (A,C) alone. D = 0.2% DMSO, used as the vehicle control.
The amount of intracellular Ca^2+ ([Ca^2+]i) of platelets was measured as previously described. […] Grynkiewicz et al. proposed an equation for calculating the [Ca^2+]i by measuring the intensity of fluorescence signals (excitation/emission wavelengths: 339/500 nm) obtained from the platelets.

[1] = tested on: platelet-poor plasma (PPP); test: In vitro aPTT clotting time in platelet-poor plasma; design: species or system human
Protocol: Figure 2 Effects of CSL on clotting time. (A) Platelet-poor plasma (PPP) was incubated with the indicated concentrations of CSL or rivaroxaban (Riva) for 15 min. (B) One hour after administering DMSO, CSL, or Riva, blood was collected from the mice, and PPP was obtained. Then, in vitro aPTT (A) or ex vivo aPTT was measured, as described in the Methods sections. Data are shown as mean values ± SD of five independent experiments. * p < 0.05 vs. D. D = 0.2% DMSO, used as the vehicle control.
Ten fasting healthy volunteers (aged 24–28; six women and four men) who were free of allergies, cardiovascular problems, carbohydrate, or lipid metabolic abnormalities and had not taken any morning medication had their blood samples taken. None of our subjects used addictive drugs or antioxidant food supplements, and their diets were well balanced. The plasma from the blood samples was immediately spun down (1300× g for 15 min) to separate it from sodium citrate (10.9 mM) and pooled for the following investigations. Next, human blood samples were spun down at room temperature to rapidly separate the PRP. The PRP concentration was adjusted to 1 × 10^9 platelets/mL using a hemocytometer. After being rinsed once in HEPES buffer containing 1 mM CaCl2, the PRP pellet was maintained at room temperature for an additional 30 min. Then, 10 mL of the platelet samples were utilized to measure each clotting time point. The IRB of Kyungpook National University Hospital (Daegu, Republic of Korea) approved this study protocol (KNUH 2012-01-010).
Plasma was taken by centrifuging blood (2000× g for 10 min) at room temperature following dimethyl sulfoxide (DMSO) or CSL administration for 1 h to assess PT and aPTT using a thrombotimer (Behnk Elektronik, Norderstedt, Germany). Micronized silica was utilized as an activator for the aPTT test. Briefly, 100 μL of platelet-poor plasma (PPP) and 100 μL of aPTT assay reagent were combined for 1 min at 37 °C, 100 µL of CaCl2 (20 mM) was added, and the clotting times were noted. […] Next, the clotting time was measured.

Factor Xa = molecular target: T1, Factor Xa (Homo sapiens, UniProt P00742); test: FXa amidolytic activity and inhibitory constant (chromogenic substrate); assay type: biochemical
T1 construct: Factor Xa; purchased Haematologic Technologies (Essex Junction, VT, USA)
T1 sequence (P00742 235-488 limits assumed): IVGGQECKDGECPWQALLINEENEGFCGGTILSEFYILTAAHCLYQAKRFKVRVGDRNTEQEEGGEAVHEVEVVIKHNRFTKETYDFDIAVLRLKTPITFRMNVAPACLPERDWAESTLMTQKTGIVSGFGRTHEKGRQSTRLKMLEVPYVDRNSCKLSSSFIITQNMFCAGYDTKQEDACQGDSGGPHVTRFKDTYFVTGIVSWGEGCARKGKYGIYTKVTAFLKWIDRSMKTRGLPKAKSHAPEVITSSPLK
T1 sequence (P00742 41-179 partner limits assumed): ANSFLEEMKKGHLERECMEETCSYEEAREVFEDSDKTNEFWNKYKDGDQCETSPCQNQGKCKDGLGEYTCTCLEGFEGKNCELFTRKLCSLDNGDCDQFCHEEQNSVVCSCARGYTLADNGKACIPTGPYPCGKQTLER
Protocol: CSL was dissolved in 50 mM Tris buffer, which has a pH of 7.4, and was added to 150 μL of FXa solution (1 U/mL). This mixture was incubated for 1 min at 37 °C. Additionally, 150 μL of S-2222 solution (1.5 mM) was blended, and for 20 min, the changes in absorbance were observed spectrophotometrically at 405 nm. We used the slope of the curve (Vi) and the absorbance–time curve to determine enzyme activity. Equation (1) was used to compute the CSL inhibitory rates:Inhibitory rate (%) = (V0 − Vi)/V0 × 100(1) where Vi and V0 represent the slopes of the samples and the vehicle, respectively.
Ki values were calculated based on chromogenic substrate experiments. CSL was employed in each assay at a minimum of seven concentrations in duplicate to obtain an inhibition curve. A total of 50 μL of substrate was combined with 25 μL of each chemical solution, inhibitor solution, or blank buffer. Before the plate was allocated into the Labsystems IEMS microtiter plate reader (Cergy Pontoise, France), 25 μL of the enzyme solution was mixed. The plate was allowed for 1 h at 37 °C before analysis. We continuously observed the formation of p-nitroaniline produced when the substrate was hydrolyzed using spectrophotometry at 405 nm. The maximum initial reaction rates were computed as the millioptical density per minute. A Dixon plot of 1/Vmax versus inhibitor concentration was used to fit the curve and determine the Ki values.

[2] = tested on: human umbilical vein endothelial cells (HUVECs); test: NO and ET-1 production, ELISA; assay type: cell-based; conditions: ADP or U46619 treated

## COc1cc(-c2cc(=O)c3c(O)c(OC)c(OC)cc3o2)ccc1O [CSL, 4,5-dihydroxy-3,6,7-trimethoxyflavone]
Human platelets
  ADP- and U46619-induced elevations in [Ca2+]i: inhibited
[1]; PPP incubated 15 min
  concentration that doubled the clotting time (in vitro aPTT): 7.23 µM
[1]; doses between 5 and 20 M
  aPTT in vitro: considerably slowed the aPTT
Factor Xa
  Km value of FXa on S-2222: increase
  Vmax of FXa on S-2222: decrease
  selectivity ratio (based on Ki values) for FXa compared to other enzymes examined: > 300
Factor Xa; CSL 10 μM, FXa on S-2222
  slope of Michaelis–Menten plot: 0.568
Factor Xa; CSL 20 μM, FXa on S-2222
  slope of Michaelis–Menten plot: 0.759
Factor Xa; FXa on S-2222
  inhibitory pattern (Lineweaver–Burk plot): mixed-type inhibitory pattern
Factor Xa; Factor Xa
  Ratio = Ki enzyme/Ki Factor Xa: 1
Factor Xa; Factor Xa, chromogenic substrate S-2222, Dixon plot
  Ki: 3.71 µM and 3.7 µM
[2]
  NO secretion: returned the decreased NO secretion caused by ADP or U46619 to their baseline levels
  production of ET-1: returned the increased production of ET-1
